Laboratory results published in BindingDB's records for doi:10.1158/1535-7163.MCT-07-0352 (Saic-Frederick, 2007).

Target: T1, Broad substrate specificity ATP-binding cassette transporter ABCG2 (Homo sapiens, UniProt Q9UNQ0)
T1 sequence (Q9UNQ0 whole entry): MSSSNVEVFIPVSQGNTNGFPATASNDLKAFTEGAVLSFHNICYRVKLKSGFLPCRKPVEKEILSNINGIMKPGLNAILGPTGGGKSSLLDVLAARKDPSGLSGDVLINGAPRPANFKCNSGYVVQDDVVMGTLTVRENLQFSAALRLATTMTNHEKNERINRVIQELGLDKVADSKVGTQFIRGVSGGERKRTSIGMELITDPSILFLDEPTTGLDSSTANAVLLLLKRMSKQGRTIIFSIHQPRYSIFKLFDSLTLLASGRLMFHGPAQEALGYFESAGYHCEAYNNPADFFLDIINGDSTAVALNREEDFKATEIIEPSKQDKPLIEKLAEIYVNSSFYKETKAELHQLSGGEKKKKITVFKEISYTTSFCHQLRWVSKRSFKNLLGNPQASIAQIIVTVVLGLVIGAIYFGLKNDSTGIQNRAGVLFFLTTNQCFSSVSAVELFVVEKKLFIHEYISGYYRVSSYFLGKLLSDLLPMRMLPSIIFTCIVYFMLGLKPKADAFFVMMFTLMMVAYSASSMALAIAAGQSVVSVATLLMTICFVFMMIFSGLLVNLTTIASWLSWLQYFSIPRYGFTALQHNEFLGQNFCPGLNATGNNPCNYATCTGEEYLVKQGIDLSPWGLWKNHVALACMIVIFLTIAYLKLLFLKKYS
Assay: Screening Assay for ABCG2 Inhibitors
Conditions: pH 7.4; 37 °C
Protocol: IC50 and maximal activities for inhibition of PhA accumulation were determined from dose-response curves. The accumulation of PhA, a fluorescent ABCG2 substrate, formed the basis of the assay for inhibitors of ABCG2 activity. NCI-H460/MX20 cells were transferred to black-walled, clear-bottomed 384-well polylysine-coated assay plates (Corning) and allowed to attach for several hours. PhA was added, immediately followed by compounds or vehicle (DMSO/PBS) control and incubated for an additional 18 h. After removal of medium and washing with PBS containing Ca2+ and Mg2+, fluorescence intensity was read on a Tecan Safire fluorescence plate reader in bottom read mode (395 nm excitation, 670 nm emission). Each plate had control wells containing Fumitremorgin C (FTC). Data were normalized to FTC and reported as the percentage of FTC fluorescence. Apparent IC50 values were calculated from dose-response data using SigmaPlot (SPSS, Inc., Chicago) 4-parameter logistic nonlinear regression analysis.

Compound | IC50 [µM]
CC1CCC2(OC1)OC1C(O)C3C4CCC5CC(OC6OC(CO)C(OC7OC(CO)C(O)C(OC8OCC(O)C(O)C8O)C7OC7OC(CO)C(O)C(OC8OC(CO)C(O)C(O)C8O)C7O)C(O)C6O)C(O)CC5(C)C4CCC3(C)C1C2C (stereo not given) [Digitonin] | 9.7
CC(C)C1(NC(=O)C2CC3c4cccc5[nH]cc(c45)CC3N(C)C2)OC2(O)C3CCCN3C(=O)C(Cc3ccccc3)N2C1=O (stereo not given) [Dihydroergocristine] | 11.8

Second part, the molecule after the results:

IC50 [µM] | Compound
5.4 | Cc1ccc(NC(=O)c2cc3ccccc3cc2O)c(C)c1 [NSC306698]
4.6 | NN=C1C(OC(=O)Nc2cccc(Cl)c2)=Nc2ccccc21 [NSC320852]
5.8 | Cc1[nH]n(C(=O)c2ccncc2)c(=O)c1N=Nc1ccc2ccccc2c1 [NSC303769]
